Experimental data as given in patent US20220081409A1, “PDE9 INHIBITOR AND USE THEREOF” (NANJING TRANSTHERA BIOSCIENCES CO., LTD., priority 2019, published 2022).

What was measured:
human PDE9 [1] = target: T1, human PDE9 (Homo sapiens, UniProt O76083); details: background statement; cited from earlier work
PDE9A2 enzyme = target: T2, PDE9A2 enzyme (Homo sapiens, UniProt O76083); assay: PDE9 enzymatic evaluation; assay type: biochemical; details: fluorescence reading 480 nm/535 nm
T2 construct: purchased BPS 60090
Experimental: Experimental Example 1: PDE9 Enzymatic Evaluation
Test samples: the compounds disclosed herein, prepared according to the corresponding examples of the present invention.
Preparation of the compounds: Compounds were formulated into 10 mM compound stock solution in DMSO for long term storage. The obtained compound stock solution was 100-fold diluted with DMSO to give 100 μM compound mother liquor, which was 3-fold diluted with DMSO to give 8-10 concentration gradients of diluted compound mother liquor (100×).
Incubation with compound: Diluted compound mother liquor was pipetted into a 384-well plate using an ultramicro-liquid pipetting system (Echo); 200 nL of the diluted compound mother liquor and 10 μL of PDE9A2 enzyme solution were added to each compound well; after centrifugation at 1000 rpm for 1 min, the mixtures were incubated at room temperature for 15 min. Subsequently, 10 μL of the substrate mixture was added, and after centrifugation at 1000 rpm for 1 min, the resulting mixture was incubated at room temperature with oscillating for 30 min. Finally, stop solution was added to end the reaction, and the resulting reaction system was incubated at room temperature with oscillating for 60 min. In the maximum reading well (Max), the compound was replaced by solvent; in the minimum reading well (Min), the compound and the enzyme solution were replaced by solvent.
Detection: the fluorescence readings (F) at 480 nm/535 nm were detected using a microplate reader.
Calculation: The inhibition rate was calculated according to the following formula and IC50 was fitted using GraphPad Prism 5.0: […]

[2] = Liver microsomal stability in rat liver microsomes; assay type: in vitro ADME; details: 0.5 mg protein/mL, 1 μM compound, 37° C.
Experimental: Experimental Example 2: Evaluation of Liver Microsomal Stability of Compounds Disclosed Herein
Test samples: the compounds disclosed herein and the compound I-8 of international patent application WO2017019723A1 (prepared by referring to the examples for synthesis in WO2017019723A1) having the following structural formula: […]
An appropriate amount of the compound was precisely weighed out and dissolved in DMSO to prepare a 5.0 mM stock solution. The 5.0 mM stock solution was diluted to 1.0 mM with DMSO, and then diluted with water to 10 μM compound working solution for later use (DMSO content in the reaction system: 0.1% v/v).
• (1) The liver microsomes (20 mg protein/mL) were taken out from a −80° C. refrigerator, pre-incubated on a 37° C. water bath thermostatic oscillator for 3 min, and thawed for use. • (2) A mixed solution of the incubation system (without compound and D-NADPH) was prepared according to “composition of the experimental incubation system” described above, and pre-incubated on a 37° C. water bath thermostatic oscillator for 2 min. • (3) Control group (without D-NADPH): 30 μL of water and 30 μL of compound working solution (10 μM) were added to 240 μL of the mixed solution of the incubation system in step (2), and the mixture was vortexed for 30 s and mixed well; the total volume of the mixture was 300 μL; the sample was duplicated. The mixture was placed on a 37° C. water bath thermostatic oscillator for incubation, and timing was started; the sampling was conducted at 0 min and 60 min. • (4) Sample group: 70 μL of […] solution (10 mM) and 70 μL of compound working solution (10 μM) were added to 560 μL of the mixed solution in step (2), and the total volume of the mixture was 700 μL; the mixture was vortexed for 30 s and mixed well; the sample was duplicated. The mixture was placed on a 37° C. water bath thermostatic oscillator for incubation, and timing was started; the sampling was conducted at 0 min, 5 min, 10 min, 20 min, 30 min and 60 min. • (5) The mixture was vortexed for 3 min, and centrifuged at 4000 rpm for 10 min. • (6) 50 μL of the supernatant was taken and added to 150 μL of water, and the resulting mixture was vortexed and mixed well before LC/MS/MS analysis.
The half-life (t1/2) and clearance (Cl) were calculated using the following first-order kinetic formula:
Vd=1/protein content in liver microsomes
Note: k denotes the slope of the logarithm of the remaining amount of a compound vs. time, Vd denotes apparent volume of distribution, and C0 denotes compound concentration at 0 h.
Experiment on Stability of the Compounds Disclosed Herein in Rat Liver Microsomes

human PDE9 [3] = target: T1, human PDE9; details: substrate of PDE9, background statement; read-out: binding constant (Km); cited from earlier work

T1 sequence (O76083 whole entry): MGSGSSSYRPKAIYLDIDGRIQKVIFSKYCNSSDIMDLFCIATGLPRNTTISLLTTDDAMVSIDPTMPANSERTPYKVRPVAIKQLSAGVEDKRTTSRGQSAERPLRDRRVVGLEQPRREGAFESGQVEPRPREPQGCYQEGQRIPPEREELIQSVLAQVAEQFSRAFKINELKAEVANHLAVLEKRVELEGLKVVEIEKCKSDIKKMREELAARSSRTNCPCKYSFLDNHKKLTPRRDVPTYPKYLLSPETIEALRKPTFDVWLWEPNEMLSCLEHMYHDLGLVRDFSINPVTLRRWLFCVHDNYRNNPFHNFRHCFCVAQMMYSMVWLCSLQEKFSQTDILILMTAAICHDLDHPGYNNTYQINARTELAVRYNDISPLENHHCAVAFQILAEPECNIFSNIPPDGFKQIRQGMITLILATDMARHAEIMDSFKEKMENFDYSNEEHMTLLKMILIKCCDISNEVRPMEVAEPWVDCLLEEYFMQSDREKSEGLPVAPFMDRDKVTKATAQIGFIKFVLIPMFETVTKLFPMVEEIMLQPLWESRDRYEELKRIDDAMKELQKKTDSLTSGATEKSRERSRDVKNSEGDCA
T2 sequence (O76083 1-533 isoform O76083-2): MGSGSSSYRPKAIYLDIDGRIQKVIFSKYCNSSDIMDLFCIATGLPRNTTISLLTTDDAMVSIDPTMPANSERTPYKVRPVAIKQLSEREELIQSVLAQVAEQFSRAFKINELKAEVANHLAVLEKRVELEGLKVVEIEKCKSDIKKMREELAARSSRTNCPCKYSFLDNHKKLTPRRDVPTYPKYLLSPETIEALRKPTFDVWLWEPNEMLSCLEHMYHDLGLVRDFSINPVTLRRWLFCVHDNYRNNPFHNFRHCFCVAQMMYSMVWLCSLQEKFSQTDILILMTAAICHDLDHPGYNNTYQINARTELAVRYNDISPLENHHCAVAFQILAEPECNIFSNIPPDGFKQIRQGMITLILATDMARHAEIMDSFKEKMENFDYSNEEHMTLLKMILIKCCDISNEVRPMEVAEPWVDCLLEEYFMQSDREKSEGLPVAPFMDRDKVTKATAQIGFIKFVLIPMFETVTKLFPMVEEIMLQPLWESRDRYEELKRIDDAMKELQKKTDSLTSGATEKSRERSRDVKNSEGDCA

IC50 (PDE9A2 enzyme) | half-life at 1 μM [2] | microsomal CLint at 1 μM [2] | Compound | inhibitory activity against PDE9 (human PDE9 [1]) | other results
– | – | – | CCOC(=O)C1=C[C@]2(CC)CCCN3CCc4c(n1c1ccccc41)[C@@H]32 [vinpocetine] | no inhibitory activity or low inhibitory activity | –
15 nM | 7.7 h | 3 µL/min/mg | COC1(C)CCN(c2c(C#N)c(=O)[nH]c3ccc(C(C)(C)O)cc23)CC1 [Compound 109, 6-(2-hydroxypropan-2-yl)-4-(4-methoxy-4-methylpiperidin-1-yl)-2-oxo-1,2-dihydroquinoline-3-carbonitrile] | – | –
– | – | – | CC(=O)Nc1ccc(-c2c[nH]c(=O)cn2)cc1 [SKF94120] | no inhibitory activity or low inhibitory activity | –
2 nM | 2.82 h | 8.2 µL/min/mg | COC1(C)CCN(c2c(C#N)c(=O)[nH]c3ccc(C(O)C4CC4)cc23)CC1 (centres unmarked) [Compound 130, 6-(cyclopropyl(hydroxy)methyl)-4-(4-methoxy-4-methylpiperidin-1-yl)-2-oxo-1,2-dihydroquinoline-3-carbonitrile] | – | –
18 nM | – | – | COC1(C)CCN(c2c(C#N)c(=O)[nH]c3ccc(C(C)C)cc23)CC1 [Compound 179, 6-isopropyl-4-(4-methoxy-4-methylpiperidin-1-yl)-2-oxo-1,2-dihydroquinoline-3-carbonitrile] | – | –
12 nM | – | – | COC1(C)CCN(c2c(C#N)c(=O)[nH]c3ccc(C)cc23)CC1 [Compound 158, 4-(4-methoxy-4-methylpiperidin-1-yl)-6-methyl-2-oxo-1,2-dihydroquinoline-3-carbonitrile] | – | –
8 nM | 0.955 h | 24.2 µL/min/mg | COC1(C)CCN(c2c(C#N)c(=O)[nH]c3ccc(Br)cc23)CC1 [Compound 180, 6-bromo-4-(4-methoxy-4-methylpiperidin-1-yl)-2-oxo-1,2-dihydroquinoline-3-carbonitrile] | – | –
– | 0.792 h | 29.2 µL/min/mg | N#Cc1c(N2CCCCCC2)c2ccccc2[nH]c1=O [Compound I-8, reference compound] | – | –
8 nM | – | – | CCc1ccc2[nH]c(=O)c(C#N)c(N3CCC(C)(OC)CC3)c2c1 [Compound 107, 6-ethyl-4-(4-methoxy-4-methylpiperidin-1-yl)-2-oxo-1,2-dihydroquinoline-3-carbonitrile] | – | –
– | – | – | CC(C)Cn1c(=O)n(C)c(=O)c2[nH]cnc21 [IBMX] | no inhibitory activity or low inhibitory activity | –
– | – | – | COc1ccc(C2CNC(=O)C2)cc1OC1CCCC1 (centres unmarked) [rolipram] | no inhibitory activity or low inhibitory activity | –
– | – | – | OCCN(CCO)c1nc(N2CCCCC2)c2nc(N(CCO)CCO)nc(N3CCCCC3)c2n1 [dipyridamole] | no inhibitory activity or low inhibitory activity | –
12 nM | 2.13 h | 10.8 µL/min/mg | COCCOc1ccc2[nH]c(=O)c(C#N)c(N3CCC(C)(OC)CC3)c2c1 [Compound 145, 4-(4-methoxy-4-methylpiperidin-1-yl)-6-(2-methoxyethoxy)-2-oxo-1,2-dihydroquinoline-3-carbonitrile] | – | –
– | – | – | Nc1nc2c(ncn2[C@@H]2O[C@@H]3COP(=O)(O)O[C@H]3[C@H]2O)c(=O)[nH]1 [cGMP, cyclic guanosine monophosphate] | – | Km (human PDE9 [3]): 0.17 µM

Compound | IC50 (PDE9A2 enzyme) | half-life at 1 μM [2] | microsomal CLint at 1 μM [2] | inhibitory activity against PDE9 (human PDE9 [1]) | other results
CNC(=O)c1ccc2[nH]c(=O)c(C#N)c(N3CCC4(CC3)CC4)c2c1 [Compound 96, 3-cyano-N-methyl-2-oxo-4-(6-azaspiro[2.5]octan-6-yl)-1,2-dihydroquinoline-6-carboxamide] | 5 nM | 3.22 h | 7.2 µL/min/mg | – | –
